# Tests used:
# LcrF = LcrF (Yersinia pestis, UniProt P28808); assay: biochemical; format: binding; details: for IC50: LcrF IC50
# [1] = test system: T3SS-dependent Y. pseudotuberculosis killing of macrophages
# [2] = test system: uninfected J774A.1 murine macrophages; details: 50μg/mL
# S. aureus = assay: In vitro antimicrobial susceptibility test; format: cell-based
# [3] = test system: pET-15b supercoiled plasmid DNA; assay: In vitro DNA binding assay; details: 100 μg/mL; agarose gel electrophoresis
# SlyA = target: T1, SlyA (Salmonella typhimurium, UniProt P40676); assay: biochemical; format: binding, Salmonella spp.
# T1 sequence (P40676 1-144): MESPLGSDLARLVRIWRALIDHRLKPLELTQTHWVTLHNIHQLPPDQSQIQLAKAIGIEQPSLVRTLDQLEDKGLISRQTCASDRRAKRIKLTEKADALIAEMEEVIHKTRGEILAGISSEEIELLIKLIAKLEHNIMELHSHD
# E. coli = assay: In vitro antimicrobial susceptibility test; format: cell-based
# Y. pseudotuberculosis = format: cell-based
# Chain of LcrF (P28808 whole entry, looked up): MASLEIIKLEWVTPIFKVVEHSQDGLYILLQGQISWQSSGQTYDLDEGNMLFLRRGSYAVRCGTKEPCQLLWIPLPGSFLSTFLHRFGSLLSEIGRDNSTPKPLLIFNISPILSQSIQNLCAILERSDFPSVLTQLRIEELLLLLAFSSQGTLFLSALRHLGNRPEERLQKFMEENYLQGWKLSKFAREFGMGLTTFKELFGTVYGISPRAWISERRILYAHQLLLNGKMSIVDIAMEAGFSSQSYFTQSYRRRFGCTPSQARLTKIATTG
smiles,measurement,setting,value
"O=C(Cc1ccc(F)cc1)Nc1ccc(-c2nc3ccc([N+](=O)[O-])cc3n2O)cc1 [Compound 12, 2-(4-Fluoro-phenyl)-N-[4-(1-hydroxy-6-nitro-1H-benzoimidazol-2-yl)-phenyl]-acetamide]",inhibitory activity in LcrF-DNA binding assay (in words),LcrF,no measurable activity
"Cc1ccc(/C=C/C(=O)Nc2ccc(-c3nc4ccc([N+](=O)[O-])cc4n3O)cc2)cc1 [Compound 20, (E)-N-[4-(1-Hydroxy-6-nitro-1H-benzoimidazol-2-yl)-phenyl]-3-p-tolyl-acrylamide]",inhibition of Y. pseudotuberculosis cytotoxicity in whole cell assay (in words),[1],relatively inactive
"O=C(NCc1ccc(-c2nc3ccc([N+](=O)[O-])cc3n2O)cc1)c1ccc(F)cc1 [Compound 11, 4-Fluoro-N-[4-(1-hydroxy-6-nitro-1H-benzoimidazol-2-yl)-benzyl]-benzamide]",inhibitory activity in LcrF-DNA binding assay (in words),LcrF,no measurable activity
N#Cc1ccc(/C=C/C(=O)Nc2ccc(-c3nc4ccc([N+](=O)[O-])cc4n3O)cc2)cc1 [Compound 19],inhibition of Y. pseudotuberculosis cytotoxicity in whole cell assay (in words),[1],strongly inhibited cytotoxicity
"Cc1cc2nc(-c3ccc(NC(=O)/C=C/c4ccc(F)cc4)cc3)n(O)c2cc1[N+](=O)[O-] [Compound 36, (E)-3-(4-Fluoro-phenyl)-N-[4-(1-hydroxy-5-methyl-6-nitro-1H-benzoimidazol-2-yl)-phenyl]-acrylamide]",intrinsic toxicity to uninfected macrophages,[2],non-cytotoxic
same,antibacterial activity (in words),S. aureus,no measurable antibacterial activity
same,non-specific DNA binding (effect on plasmid migration),[3],non-DNA binding
same,IC50,SlyA,> 52 µM
same,IC50,LcrF,≤ 10 µM
same,antibacterial activity (in words),E. coli,no measurable antibacterial activity
same,antibacterial activity (in words),Y. pseudotuberculosis,no measurable antibacterial activity
O=C(/C=C/c1ccc(-c2c[nH]cn2)cc1)Nc1ccc(-c2nc3ccc([N+](=O)[O-])cc3n2O)cc1 [Compound 28],inhibitory activity in LcrF-DNA binding assay (in words),LcrF,loss of activity
"COc1ccc(/C=C/C(=O)Nc2ccc(-c3nc4ccc([N+](=O)[O-])cc4n3O)cc2)c(OC)c1 [Compound 24, (E)-3-(2,4-Dimethoxy-phenyl)-N-[4-(1-hydroxy-6-nitro-1H-benzoimidazol-2-yl)-phenyl]-acrylamide]",inhibitory activity in LcrF-DNA binding assay (in words),LcrF,loss of activity
CN(C)CCN(C)c1cc2nc(-c3ccc(NC(=O)/C=C/c4ccc(F)cc4)cc3)n(O)c2cc1[N+](=O)[O-] [Compound 40],non-specific DNA binding (effect on plasmid migration),[3],non-specific binding to DNA
"O=C(/C=C/c1ccc(F)cc1)Nc1ccc(-c2nc3ccc([N+](=O)[O-])cc3n2O)nc1 [Compound 31, (E)-3-(4-Fluoro-phenyl)-N-[6-(1-hydroxy-6-nitro-1H-benzoimidazol-2-yl)-pyridin-3-yl]-acrylamide]",inhibition of Y. pseudotuberculosis cytotoxicity in whole cell assay (in words),[1],devoid of any measurable activity
"O=C(/C=C/c1ccc(F)cc1)Nc1ccc(-c2nc3ccc([N+](=O)[O-])cc3n2O)cc1 [Compound 14, (E)-3-(4-Fluoro-phenyl)-N-[4-(1-hydroxy-6-nitro-1H-benzoimidazol-2-yl)-phenyl]-acrylamide]",intrinsic toxicity to uninfected macrophages,[2],non-cytotoxic
same,antibacterial activity (in words),S. aureus,no measurable antibacterial activity
same,non-specific DNA binding (effect on plasmid migration),[3],non-DNA binding
same,IC50,SlyA,> 53.8 µM
same,IC50,LcrF,≤ 10 µM
same,antibacterial activity (in words),E. coli,no measurable antibacterial activity
same,antibacterial activity (in words),Y. pseudotuberculosis,no measurable antibacterial activity
"CC(C)c1ccc(/C=C/C(=O)Nc2ccc(-c3nc4ccc([N+](=O)[O-])cc4n3O)cc2)cc1 [Compound 25, (E)-N-[4-(1-Hydroxy-6-nitro-1H-benzoimidazol-2-yl)-phenyl]-3-(4-isopropyl-phenyl)-acrylamide]",inhibitory activity in LcrF-DNA binding assay (in words),LcrF,loss of activity
"CCOc1ccc(-c2nc3ccc(-c4nc5ccc(N6CCN(C)CC6)cc5[nH]4)cc3[nH]2)cc1 [Hoechst 33342, reference compound]",non-specific DNA binding (effect on plasmid migration),[3],faint smear on the gel
"COc1ccc(/C=C/C(=O)Nc2ccc(-c3nc4ccc([N+](=O)[O-])cc4n3O)cc2)cc1 [Compound 22, (E)-N-[4-(1-Hydroxy-6-nitro-1H-benzoimidazol-2-yl)-phenyl]-3-(4-methoxy-phenyl)-acrylamide]",intrinsic toxicity to uninfected macrophages,[2],non-cytotoxic
same,antibacterial activity (in words),S. aureus,no measurable antibacterial activity
same,non-specific DNA binding (effect on plasmid migration),[3],non-DNA binding
same,IC50,SlyA,> 55.2 µM
same,IC50,LcrF,≤ 10 µM
same,antibacterial activity (in words),E. coli,no measurable antibacterial activity
same,antibacterial activity (in words),Y. pseudotuberculosis,no measurable antibacterial activity
O=C(/C=C/c1ccc(-n2cnnc2)cc1)Nc1ccc(-c2nc3ccc([N+](=O)[O-])cc3n2O)cc1 [Compound 27],inhibitory activity in LcrF-DNA binding assay (in words),LcrF,loss of activity
"O=C(CCc1ccc(F)cc1)Nc1ccc(-c2nc3ccc([N+](=O)[O-])cc3n2O)cc1 [Compound 13, 3-(4-Fluoro-phenyl)-N-[4-(1-hydroxy-6-nitro-1H-benzoimidazol-2-yl)-phenyl]-propionamide]",inhibitory activity in LcrF-DNA binding assay (in words),LcrF,no measurable activity

# Reference: article PMC2778250 (Journal of medicinal chemistry, 2009)
